Consider three compounds from patent publication US20180216113A1, “METHODS FOR REDUCING PROTEOTOXICITY” (priority 2015, published 2018).

One assay deals with hsp-16.2p::GFP. The experiment in a line: hsp-16.2p::GFP reporter induction (cytosolic HSR / MCSR). It counts as in vivo, C. elegans. Conditions: for hsp-6 RNAi-induced MCSR (hsp-16.2p::GFP): ceramide fed worms, 100μg/ml, 48 hours, on hsp-6 RNAi. How it is done:
(§1) Bacterial feeding of RNAi experiments was conducted during adulthood to exclude target genes' function during developmental stages. Synchronized eggs were harvested by bleaching and nematodes were grown on plates with E. coli OP50 until they reached early adulthood before they were transferred to RNAi plates. Day 1 adult worms were then grown on the RNAi plates with E. coli HT115 that carried the RNAi construct for 3 days at 20° C. Worms were imaged using a fluorescent microscope for green fluorescent protein (GFP) induction or applied to COPAS Biosorter (Union Biometrica) to quantify the level of GFP induction. The temperature-sensitive sterile strains were grown at 15° C. until they were gravid adults. Then, the cohorts were shifted to 25° C. Day 1 adult worms were transferred to RNAi plates for 2 days before images were taken. For the double RNAi treatment, E. coli carrying the indicated RNAi constructs are mixed 1:1 ratio.
(§2) Lipids, Inc. Lyophilized lipids were dissolved in Methanol with sonication. Ceramides were diluted to 100μg/ml and spotted on top of the OP50 plates or RNAi plates. Worms were transferred to Ceramide-spotted plates at L4 stage and the images were taken after 48 hours. Cardiolipin was fed to bacteria for 2-4 hours (OP50 or RNAi construct-carrying HT115) with final concentration of 100μg/ml. Then the bacteria were spotted on plates before transferring the worms. L4 worms were then transferred to the cardiolipin spotted plates and images were taken after 48 hours.
Worms were grown up to day 1 adults and underwent heat shock at 34° C. for 2 hours, then recovered at 20° C. for overnight before taking images. For the Nile Red Staining experiment, worms were recovered for 48 hours.
(§3) Perhexiline (Sigma) powder was dissolved in dimethylsulfoxide (DMSO) (100 mM). The stock was diluted to 1 mM and 100 μl was spotted on the E. coli OP50 plates or HT115 RNAi plates and dried before transferring the worms. Worms were transferred to new perhexiline plates every other day for three to four days until harvested for following experiment. […]

The test system of a further assay is hsp-6p::GFP. Put plainly: hsp-6p::GFP / hsp-60p::GFP reporter induction (UPRmt). The following applies: for UPRmt caused by cco-1 knockdown: ceramide fed reporter worms. Type of assay: in vivo, C. elegans. The procedure: as §1, §2
(§4) Perhexiline (Sigma) powder was dissolved in dimethylsulfoxide (DMSO) (100 mM). The stock was diluted to 1 mM and 100 μl was spotted on the E. coli OP50 plates or HT115 RNAi plates and dried before transferring the worms. Worms were transferred to new perhexiline plates every other day for three to four days until harvested for following experiment. For the perhexiline treatment with multiple numbers of RNAi (e.g., FIG. 4C), worms were transferred to the S-media containing HT115 RNAi bacteria, 100 μM of perhexiline and 1 mM of IPTG in a 96-well plate for 48 hrs.

The test system of assay [1] is C. elegans. Put plainly: Triglyceride quantification in worms. Type of assay: in vivo. The following applies: perhexiline treated worms. How it is done: (§5) To quantify triglyceride content, a Triglyceride quantification kit (Bio Vision) was used according to the manufacturer's protocol. Briefly, worms were harvested from plates and washed with M9 three times. Worms were homogenized with 5% NP-40 in water using a glass dounce homogenizer to extract mostly the intestinal tissues by checking the lysates under a dissecting microscope. Worms looked like empty shells once the intestinal tissues were extracted out. The samples were heated slowly at 90° C. for 5 minutes and cooled down to room temperature. Heating was repeated once more prior to centrifugation of the samples for 2 minutes to bring down debris. Supernatant was removed and mixed with enzymes provided in the kit according to the manufacturer's manual. Measurement was done using microplate reader M1000 (TECAN) at Ex/Em=535/590 nm. Calculations were done after subtracting 0 standard readings as a background.
Sample Triglyceride control (C)=B/V×D nmol/μl or mM
as §3

In assay [2] the test system is C. elegans. Put plainly: Oxygen consumption rate of whole worms (Seahorse). Type of assay: in vivo. Conditions: perhexiline treatment of hsp-6 RNAi animals. How it is done: Oxygen consumption of whole worms was measured using the Seahorse XF96 (Seahorse Bioscience). Worms were washed off from plates with M9 to remove residual bacteria. Then, 50 worms (10 worms/well/100 μl) were transferred to the microplate. 50 μl of M9 was added to the wells and the oxygen consumption rate was measured. All experiments were repeated at least three times.

Assay [3] concerns aggregated PolyQ proteins (Q35::YFP). Put plainly: Filter trap assay of aggregated PolyQ proteins in worms. It counts as in vivo, C. elegans. Conditions: AM140 worms. The procedure: (§6) 100μg of protein samples were applied on to cellulose acetate membrane with 0.22 μm pore size (Schlechtes+Schule), assembled in vacuum slot blotter (Bio-Dot, Bio-Rad). Membrane was washed with 0.2% SDS five times on the blotter and subjected to antibody incubation for detecting aggregated protein retained on the membrane. Briefly, membrane was incubated with anti-GFP antibody (1:3000 dilution in 5% milk in PBS, Roche) overnight in a cold room. Membrane was washed with PBST (PBST with 0.05% Tween-20) for three times, then incubated with secondary antibody (donkey anti-mouse antibody conjugated with HRP, 1:5000 dilution in 5% milk in PBS, Jackson Immuno Research). Membranes were washed with PBST three times and exposed to film after applying ECL solutions (Pierce) to visualize the protein bands.
as §4

Assay [4] deals with polyglutamine repeats in Huntingtin exon 1 (Q78). The experiment in a line: Filter trap assay of polyQ aggregates in human primary fibroblasts. The following applies: perhexiline 400 nM, 48 hours. It counts as cell-based. The procedure: The following siRNAs were tested for depleting the indicated genes in the human primary fibroblasts or HEK cells: hspa9 siRNA (#1 and #2), accl siRNA (#1 and #2), fas siRNA (#1 and #2) (Ambion). Scrambled siRNA with no known mammalian homology (non-targeting siRNA #1 (Ambion) was used as negative control. Double siRNA treatment was performed by mixing two different siRNAs indicated at 1:1 ratio. Cells were transfected with the siRNAs using JetPrime according to the manufacturer's manual and then harvested after 48 h. Control vector-transfected cells were used as controls for all the experiments.
as §6, with “Membranes were washed with PBST three times and exposed to film after applying ECL solutions (Pierce) to visualize the protein bands.” left out

A further assay concerns cytosolic HSP70. The experiment in a line: Western blotting of cytosolic HSP70 in human primary fibroblasts. Type of assay: cell-based. Conditions: human primary fibroblasts (GFP expressing cells). How it is done:
The following siRNAs were tested for depleting the indicated genes in the human primary fibroblasts or HEK cells: hspa9 siRNA (#1 and #2), accl siRNA (#1 and #2), fas siRNA (#1 and #2) (Ambion). Scrambled siRNA with no known mammalian homology (non-targeting siRNA #1 (Ambion) was used as negative control. Double siRNA treatment was performed by mixing two different siRNAs indicated at 1:1 ratio. Cells were transfected with the siRNAs using JetPrime according to the manufacturer's manual and then harvested after 48 h. Control vector-transfected cells were used as controls for all the experiments. For SDS-PAGE, 20-40μg of protein samples were loaded on 4-12% bis-tris SDS gel (Invitrogen). The gel was transferred to nitrocellulose membrane (GE) using XCell II blot module (Invitrogen). Then, membranes were incubated with antibodies and exposed to film as described above. mtHSP70 (Abcam), α-Tubulin (Sigma), GFP (Roche), and cytosolic HSP70 (HSP70/HSP72, Enzo life) were used to probe the membrane. The western blot bands' intensity was measured using ImageJ software. For the cell culture experiments, cells were grown to 90% confluent and washed with PBS. Indicated concentrations of perhexiline were diluted in the cell growth media with serum and replaced in cell culture dishes. After 48 hours, cells were washed with PBS and harvested for following experiments.

In assay [5] the test system is human primary fibroblasts. Put plainly: Triglyceride content of human primary fibroblasts. Type of assay: cell-based. The following applies: human primary fibroblasts (GFP expressing cells) after perhexiline treatment. How it is done: as §5
For the mammalian cell culture samples, cells were washed with cold PBS and homogenized with 5% NP-40 in water using a syringe with 22 G needle, followed by the procedure shown above. All experiments were done with three biological repeats.
For the cell culture experiments, cells were grown to 90% confluent and washed with PBS. Indicated concentrations of perhexiline were diluted in the cell growth media with serum and replaced in cell culture dishes. […]

Consider `CCCCCCCCCCCCC/C=C/[C@@H](O)[C@H](CO)NC(=O)CCCCCCCCCCCCCCCCCCC` [C20 ceramide], for which the “hsp-6 RNAi-induced MCSR (hsp-16.2p::GFP)” value with hsp-16.2p::GFP is “partially block”. Further, in the assay on hsp-6p::GFP, the “UPRmt caused by cco-1 knockdown” value is given as “did not affect”.
`CCCCCCCCCCCCC/C=C/[C@@H](O)[C@H](CO)NC(=O)CCCCCCCCCCCCCCCCCCCCC` [C22 ceramide]: the “hsp-6 RNAi-induced MCSR (hsp-16.2p::GFP)” value in the assay on hsp-16.2p::GFP is given as “completely inhibited”. Further, the “UPRmt caused by cco-1 knockdown” value with hsp-6p::GFP is reported as “did not affect”.
On to `C1CCC(C(CC2CCCCN2)C2CCCCC2)CC1` (stereo not drawn) [perhexiline, 2-(2,2-dicyclohexylethyl)piperidine], for which the “cytosolic hsp-16.2 expression” value in the assay on hsp-16.2p::GFP (perhexiline treated hsp-16.2p::GFP;CF512 reporter worms) is listed as “specifically induced”. Further, in the assay with hsp-6p::GFP (perhexiline treated reporter worms), the “induction of UPRmt (hsp-6p::GFP, hsp-60p::GFP)” value is “moderately induced”. Moreover, in the assay on C. elegans [1], the “fat accumulation (triglyceride content)” value was “increased”. The “overall oxygen consumption rate” value with C. elegans [2] was “did not further reduce”. Moreover, the “levels of aggregated PolyQ proteins” value in assay [3] was “decreased levels”. Also, the polyglutamine protein aggregation entry in assay [4] is given as “reduced”. In addition, the “expression of cytosolic HSP70” value in the assay on cytosolic HSP70 was “induce expression”. The triglyceride levels result in assay [5] is reported as “increased”.
